Like-named read-outs stand apart in the source and are kept apart here. Marks after values point to notes of the source that are not given here.
What was measured:
[1] = system: influenza virus A/Puerto Rico/8/34 (H1N1); assay: Antiviral (cytoprotective) activity in MDCK cells, MTT; format: cell-based
[2] = system: MDCK cells; assay: Cytotoxicity in MDCK cells (MTT, CC50); settings: uninfected MDCK cells, 48 h
[3] = system: DU145; assay: Initial cytotoxicity testing (MTT test), DU145; format: cell-based, human; settings: for cytotoxicity DU145: human cancer cell line, MTT, 72 h, two concentrations 50–100 µM; for IC50: Homo sapiens, DU-145, 72 h, read-out: cytotoxicity DU145
Procedure: (§1) Colon cancer (HCT116, HT29), breast cancer (MCF7, SKBR3), melanoma (SK-MEL28), lung cancer (A549), prostate cancer (DU145), human normal cells (VA-13 and HEK293), and murine mammary cell lines (EMT6) were purchased from ATCC (Manassas, VA, USA). Cells were routinely grown in RPMI 1640 culture medium, supplemented with 10% fetal bovine serum, glutamine, and 100 U/mL penicillin. HCT116, HT29, MCF7, SKBR3, SK-MEL28, A549, DU145, VA-13, HEK293, and EMT6 cells were grown in flasks in RPMI 1640 fresh culture medium with supplements at 37 °C and 5% CO2. Cells were grown as monolayer cultures, and the cells in the exponential growth phase were trypsinized and suspended in the supplemented RPMI 1640 medium.
(§2) To evaluate the cytotoxicity of the compounds, we placed cells in (20–30) × 10^3 cells/mL concentrations in 96-well culture plates for 24 h. Cells were counted after treatment with Trypan blue solution (0.4%). They were then exposed to two different concentrations of compounds 16–30 (50–100 µM) dilutions in pre-incubated cells at 37 °C for 72 h. In control wells with untreated cells, only (DMSO + PBS) was added. Cell viability was measured by the standard MTT test. The stock solutions of each compound were prepared in DMSO following by preparation of serial dilutions in PBS.
(§3) The absorbance was measured at 540 nm using a Multiskan™ FC microplate photometer and the Skanlt software 6.1 RE for microplate reader, both from Thermo Scientific (Waltham, MA, USA). Experiments were carried out in triplicate; to perform the statistical analysis, more concentrations should be evaluated.

[4] = system: A549; assay: Initial cytotoxicity testing (MTT test), A549; format: cell-based, human; settings: for cytotoxicity A549: human cancer cell line, MTT, 72 h, two concentrations 50–100 µM; for IC50: Homo sapiens, A549, 72 h, read-out: cytotoxicity A549
Procedure: as §1, §2, §3

[5] = system: VA-13; assay: Initial cytotoxicity testing (MTT test), VA-13; format: cell-based, human; settings: human healthy cells, MTT, 72 h, two concentrations 50–100 µM
Procedure: as §1, §2, §3

[6] = system: HEK293; assay: Initial cytotoxicity testing (MTT test), HEK293; format: cell-based, human; settings: human healthy cells, MTT, 72 h, two concentrations 50–100 µM
Procedure: as §1, §2, §3

[7] = system: EMT6; assay: Initial cytotoxicity testing (MTT test), EMT6; format: cell-based, murine; settings: for cytotoxicity EMT6: murine mammary cell line, MTT, 72 h, two concentrations 50–100 µM
Procedure: as §1, §2, §3

[8] = system: DU145, A549, VA-13, HEK293, EMT6; assay: Initial cytotoxicity testing (MTT test), all cell lines together; format: cell-based; settings: for IC50: after 72 h, read-out: IC50 on all cells
Procedure: as §1, §2, §3

[9] = system: HCT116; assay: IC50 determination (MTT test), HCT116; format: cell-based, human; settings: 72 h; for IC50: Homo sapiens, HCT-116, colon cancer; for IC50 HCT116: colon cancer
Procedure: as §1
(§4) To evaluate the cytotoxicity of the SDE-series in vitro, we placed cells in (15–30) × 10^3 cells/mL concentrations in 96-well culture plates for 24 h. Cells were counted after treatment with Trypan blue solution (0.4%). After 24 h, the cells were exposed to six tested concentrations of SDE-series (50–1.5 µM) dilutions to pre-incubated cells at 37 °C for 72 h. In control wells with untreated cells, only (DMSO + PBS) was added. Cell viability was measured by the standard MTT test. The absorbance was measured at 540 nm using a Multiskan™ FC microplate photometer and the Skanlt software 6.1 RE for microplate reader, both from Thermo Scientific (Waltham, MA, USA). In vitro experiments were carried out in triplicate. GraphPad prism version 9.0 was used to determine the IC50. The IC50 data are presented as mean (±) standard deviation (SD).

[10] = system: HT-29; assay: IC50 determination (MTT test), HT-29; format: cell-based; settings: Homo sapiens, colon cancer, 72 h
Procedure: as §1, §4

[11] = system: MCF7; assay: IC50 determination (MTT test), MCF7; format: cell-based; settings: Homo sapiens, breast cancer, 72 h
Procedure: as §1, §4

[12] = system: SKBR3; assay: IC50 determination (MTT test), SKBR3; format: cell-based; settings: Homo sapiens, SK-BR-3, breast cancer, 72 h
Procedure: as §1, §4

[13] = system: SK-MEL-28; assay: IC50 determination (MTT test), SK-MEL-28; format: cell-based, human; settings: 72 h; for IC50: Homo sapiens, SK-MEL-28, melanoma; for IC50 SK-MEL-28: melanoma
Procedure: as §1, §4

[14] = system: A549; assay: IC50 determination (MTT test), A549; format: cell-based; settings: Homo sapiens, lung cancer, 72 h
Procedure: as §1, §4

[15] = system: DU145; assay: IC50 determination (MTT test), DU145; format: cell-based; settings: Homo sapiens, DU-145, prostate cancer, 72 h
Procedure: as §1, §4

[16] = system: HEK-293; assay: IC50 determination (MTT test), HEK-293; format: cell-based; settings: Homo sapiens, HEK293, normal cells, 72 h
Procedure: as §1, §4

[17] = in vitro; settings: dog
[18] = Initial cytotoxicity testing (MTT test), VA-13; format: cell-based, human; settings: human healthy cells, MTT, 72 h, two concentrations 50–100 µM
Procedure: as §1, §2, §3

[19] = Initial cytotoxicity testing (MTT test), HEK293; format: cell-based, human; settings: human healthy cells, MTT, 72 h, two concentrations 50–100 µM
Procedure: as §1, §2, §3

[20] = system: a variety of cancer cell lines; assay: IC50 determination (MTT test), variety of cancer cell lines; format: cell-based; settings: Homo sapiens, 72 h, read-out: IC50 range on a variety of cancer cell lines
Procedure: as §1
as §4, with “In vitro experiments were carried out in triplicate. GraphPad prism version 9.0 was used to determine the IC50. The IC50 data are presented as mean (±) standard deviation (SD).” left out

[21] = system: influenza virus A/Puerto Rico/8/34 (H1N1); assay: Time-of-addition experiment in MDCK cells; format: cell-based; settings: m.o.i. 10, addition from -2 h to 6 hpi
[22] = H1N1, infected MDCK cells, m.o.i. 0.01, 48 h, 50% cell protection, read-out: IC50

Row | Compound | IC50 [1, 22] | CC50 [2] | cytotoxicity EMT6 [7] | IC50 [9] | IC50 [10] | IC50 [11] | IC50 [12] | IC50 [13] | IC50 [14] | IC50 [15] | IC50 [16] | CC50 at 48 h [17] | IC50 [3] | IC50 [4] | IC50 at 72 h [18] | IC50 at 72 h [19] | also measured
1 | NC12CC3CC(CC(C3)C1)C2 [Amantadine, reference compound] | 64 ± 5 µM | 284 ± 21 µM | – | – | – | – | – | – | – | – | – | – | – | – | – | – | –
2 | COc1ccc(C2=NO[C@]3(CC/C=C(\C)CC[C@@H]4[C@@H]3CC4(C)C)C2)cc1 [Compound 17a, (1S,2R,9R,E)-3′-(4-Methoxyphenyl)-6,10,10-trimethyl-4′H-spiro[bicyclo [7.2.0]undecane-2,5′-isoxazol]-5-ene] | 8.03 ± 1.1 µM | – | + * | 39.4 ± 2.8 µM | 47.1 ± 3 µM | > 50 µM | 36.5 ± 3.2 µM | 38.9 ± 3.9 µM | 30.7 ± 2.1 µM | 42.6 ± 3.4 µM | 44.3 ± 4.1 µM | 37 ± 2.2 µM | – | – | – | – | cytotoxicity DU145 [3]: + *; cytotoxicity A549 [4]: + *; cytotoxicity VA-13 [5]: + *; cytotoxicity HEK293 [6]: + *; toxicity to all cells [8]: extremely toxic, killing all cells within 48 h
3 | C=C1CC[C@@H]2C(c3ccc(OC)cc3)=NO[C@@]2(C)CC[C@@H]2[C@@H]1CC2(C)C [Compound 17b, (3aR,6aS,8aR,10aS)-3-(4-methoxyphenyl)-8,8,10a-trimethyl-6-methylene-3a,5,6,6a,7,8,8a,9,10,10a-decahydro-4H-cyclobuta [5,6]cyclonona [1,2-d]isoxazole] | > 12.8 µM | – | – | – | – | – | – | – | – | – | – | 27 ± 2.4 µM | < 50 µM | < 50 µM | < 50 µM | < 50 µM | IC50 [8]: < 50 µM
4 | CC1=CCCC2(CC(C)=NN2c2ccccc2)C2CC(C)(C)C2CC1 [Compound 21a, (1S,2R,9R,E)-5′,6,10,10-Tetramethyl-2′-phenyl-2′,4′-dihydrospiro[bicyclo [7.2.0]undecane-2,3′-pyrazol]-5-ene] | 6.25 ± 0.7 µM | – | + * | 22.4 ± 0.8 µM | 39.4 ± 2.1 µM | > 50 µM | 12.3 ± 1 µM | 24.9 ± 1.3 µM | 21.2 ± 0.9 µM | 18.8 ± 0.4 µM | 14.2 ± 0.9 µM | 28 ± 1.9 µM | – | – | – | – | cytotoxicity DU145 [3]: + *; cytotoxicity A549 [4]: + *; cytotoxicity VA-13 [5]: + *; cytotoxicity HEK293 [6]: + *; toxicity to all cells [8]: extremely toxic, killing all cells within 48 h; IC50 [20]: 12.3 to 39.4 µM
5 | COc1cccc(OC)c1C1=NN(c2c(Cl)cc(Cl)cc2Cl)[C@]2(CC/C=C(\C)CC[C@@H]3[C@@H]2CC3(C)C)C1 [Compound 23a, (1S,2R,9R,E)-5′-(2,6-Dimethoxyphenyl)-6,10,10-trimethyl-2′-(2,4,6-trichlorophenyl)-2′,4′-dihydrospiro[bicyclo [7.2.0]undecane-2,3′-pyrazol]-5-ene] | > 5.59 µM | – | + * | > 50 µM | 45 ± 1.9 µM | > 50 µM | > 50 µM | > 50 µM | 33.4 ± 2.2 µM | 28.8 ± 1.2 µM | 39.2 ± 3 µM | 10.2 ± 0.8 µM | < 50 µM | < 50 µM | < 50 µM | < 50 µM | toxicity against EMT6 ([7]; initial testing): extremely toxic; IC50 [8]: < 50 µM; IC50 HCT116 [9]: did not show any cytotoxic effects; IC50 SK-MEL-28 [13]: did not show any cytotoxic effects
6 | CC1(C)C[C@H]2[C@H]1CC[C@]1(C)ON=C(c3ccc(Cl)cc3)[C@H]1CC[C@@]21CC(c2ccc(Cl)cc2)=NO1 [Compound 25, (3aR,6R,6aS,8aR,10aS)-3,3′-Bis(4-chlorophenyl)-8,8,10a-trimethyl-3a,4,5,6a,7,8,8a,9,10,10a-decahydro-4′H-spiro[cyclobuta [5,6]cyclonona [1,2-d]isoxazole-6,5′-isoxazole]] | 34.1 ± 4.4 µM | – | – | > 50 µM | > 50 µM | > 50 µM | > 50 µM | > 50 µM | > 50 µM | > 50 µM | > 50 µM | 426 ± 26.9 µM | 50 to 100 µM | 50 to 100 µM | > 50 µM | > 50 µM | latest time of addition with virus-inhibiting activity [21]: ≤ 6 hpi; toxicity to DU145 ([3]; initial testing): harmful; toxicity to A549 ([4]; initial testing): harmful; IC50 HCT116 [9]: did not show any cytotoxic effects; IC50 SK-MEL-28 [13]: did not show any cytotoxic effects
7 | CC(N)C1C[C@@H]2CC[C@H]1C2 (stereo partly shown) [Deitiforin, reference compound] | – | 1270 ± 82 µM | – | – | – | – | – | – | – | – | – | – | – | – | – | – | –
8 | NC(=O)c1ncn([C@@H]2O[C@H](CO)[C@@H](O)[C@H]2O)n1 [Ribavirin, reference compound] | 25 µM | > 2000 µM | – | – | – | – | – | – | – | – | – | – | – | – | – | – | –
9 | CC(N)C12CC3CC(CC(C3)C1)C2 (stereo not shown) [Rimantadine, reference compound] | – | 335 ± 27 µM | – | – | – | – | – | – | – | – | – | – | – | – | – | – | IC50 ([1]; H1N1, MDCK, 48 h): 67 ± 4.9 µM
